These results are taken from ChEMBL document CHEMBL1132763, “8-Aminocyclazocine analogues: synthesis and structure-activity relationships” (Bioorg Med Chem Lett, 2000).

The target in assay [1] is Mu-type opioid receptor (Cavia porcellus, UniProt P97266). Put plainly: Binding affinity was determined against Opioid receptor mu 1 obtained from guinea pig brain membranes using [3H]DAMGO as radioligand.
In assay [2] the target is Kappa-type opioid receptor (Cavia porcellus, UniProt P41144). In words: Binding affinity was determined against Opioid receptor kappa 1 obtained from guinea pig brain membranes using [3H]U-69593 as radioligand.
Assay [3] can be described thus: Binding affinity was determined against Opioid receptor delta 1 obtained from guinea pig brain membranes using [3H]naltrindole as radioligand.

The term Ki denotes the dissociation constant of the complex between target and ligand, obtained from inhibition or displacement.

Mu-type opioid receptor, sequence (P97266 whole entry): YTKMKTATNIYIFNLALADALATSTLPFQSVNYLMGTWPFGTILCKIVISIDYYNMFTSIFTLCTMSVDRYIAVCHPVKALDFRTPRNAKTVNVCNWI
Kappa-type opioid receptor, sequence (P41144 whole entry): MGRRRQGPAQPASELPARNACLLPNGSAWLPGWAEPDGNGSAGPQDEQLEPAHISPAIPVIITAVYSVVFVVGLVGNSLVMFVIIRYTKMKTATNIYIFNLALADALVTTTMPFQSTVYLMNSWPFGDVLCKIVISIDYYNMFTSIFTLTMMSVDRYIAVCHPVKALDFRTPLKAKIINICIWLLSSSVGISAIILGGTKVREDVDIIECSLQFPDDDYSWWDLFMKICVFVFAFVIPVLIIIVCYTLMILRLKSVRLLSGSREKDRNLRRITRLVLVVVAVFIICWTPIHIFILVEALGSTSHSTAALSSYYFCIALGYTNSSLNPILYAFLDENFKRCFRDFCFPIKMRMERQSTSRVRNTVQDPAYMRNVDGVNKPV

Regarding `C[C@H]1C2Cc3ccc(NCCc4ccccc4)cc3[C@@]1(C)CCN2CC1CC1` (mixture of isomers), the values for the Ki in assay [1] and in assay [2] were 9 nM and 11 nM, respectively.

`C[C@H]1C2Cc3ccc(N(C)Cc4ccccc4)cc3[C@@]1(C)CCN2CC1CC1` (mixture of isomers): the Ki in assay [1] turned out to be 56 nM; in assay [2], 44 nM.

In the case of `C[C@H]1C2Cc3ccc(NCc4ccccc4)cc3[C@@]1(C)CCN2CC1CC1` (stereo in doubt; (-)-14), the figures for the Ki in assay [1] and in assay [2] were 0.67 nM and 2.1 nM, respectively.

As for `C[C@H]1[C@H]2Cc3ccc(Nc4ccccc4)cc3[C@@]1(C)CCN2CC1CC1` (stereo in doubt; (-)-11), the results for the Ki in assay [1] and in assay [2] were 1.1 nM and 0.54 nM, respectively.

On to `CC(C)Nc1ccc2c(c1)[C@@]1(C)CCN(CC3CC3)C(C2)[C@@H]1C` (mixture of isomers), for which the results for the Ki in assay [1] and in assay [2] were 240 nM and 78 nM, respectively.

`C[C@H]1[C@H]2Cc3ccc(Nc4ccccc4)cc3[C@@]1(C)CCN2CC1CC1` (racemic): the inhibition constant (Ki) turned out to be 1.3 nM in assay [1] and 0.83 nM in assay [2].

In assay [3], `C[C@H]1[C@H]2Cc3ccc(O)cc3[C@]1(C)CCN2CC1CC1` [CYCLAZOCINE] gave a Ki of 0.58 nM.

On to `C[C@H]1C2Cc3ccc(N)cc3[C@@]1(C)CCN2CC1CC1` (mixture of isomers), for which the inhibitory constant (Ki) in assay [1] worked out at 9.5 nM; in assay [2], 4.1 nM.

In the case of `C[C@H]1C2Cc3ccc(N4CCN(C)CC4)cc3[C@@]1(C)CCN2CC1CC1` (mixture of isomers), the Ki in assay [1] is 21 nM; in assay [2] it was 8.8 nM.

Consider `C[C@H]1C2Cc3ccc(N4CCOCC4)cc3[C@@]1(C)CCN2CC1CC1` (mixture of isomers), for which the Ki in assay [1] came to 650 nM; in assay [2], 560 nM.

In assay [2], `C[C@H]1C2Cc3ccc(N4CCCC4)cc3[C@@]1(C)CCN2CC1CC1` (mixture of isomers) returned a Ki of 410 nM.

In the case of `C[C@H]1C2Cc3ccc(N4CCCCC4)cc3[C@@]1(C)CCN2CC1CC1` (mixture of isomers), the Ki was found to be 950 nM in assay [1] and 300 nM in assay [2].

Turning to `C[C@H]1C2Cc3ccc(NCc4ccccc4)cc3[C@@]1(C)CCN2CC1CC1` (mixture of isomers), the Ki in assay [1] is 1.5 nM; in assay [2], 4.7 nM.

`C[C@H]1[C@H]2Cc3ccc(O)cc3[C@@]1(C)CCN2CC1CC1` (racemic) returned a Ki in assay [2] of 0.18 nM.

As for `CCNc1ccc2c(c1)[C@@]1(C)CCN(CC3CC3)C(C2)[C@@H]1C` (mixture of isomers), the Ki in assay [1] was 5.1 nM; in assay [2], 3.3 nM.

For the molecule `C[C@H]1C2Cc3ccc(N)cc3[C@@]1(C)CCN2CC1CC1` (stereo in doubt; (+)-6), the values for the Ki in assay [1] and in assay [2] were 780 nM and 506 nM, respectively.

Consider `C[C@H]1C2Cc3ccc(N)cc3[C@@]1(C)CCN2CC1CC1` (stereo in doubt; (-)-5), for which the results for the Ki in assay [1] and in assay [2] were 1.8 nM and 1.2 nM, respectively.

For `C[C@H]1[C@H]2Cc3ccc(Nc4ccccc4)cc3[C@@]1(C)CCN2CC1CC1` (stereo in doubt; (+)-12), the Ki in assay [1] was determined as 46 nM; in assay [2] it was 27 nM.

On to `C[C@H]1C2Cc3ccc(N(C)C)cc3[C@@]1(C)CCN2CC1CC1` (mixture of isomers), for which the Ki was determined as 82 nM in assay [1] and 33 nM in assay [2].

With `C[C@@H]1[C@@H]2Cc3ccc(O)cc3[C@@]1(C)CN2CC1CC1`, the Ki in assay [1] was 360 nM; in assay [2], 76 nM.

On to `CNc1ccc2c(c1)[C@@]1(C)CCN(CC3CC3)C(C2)[C@@H]1C` (mixture of isomers), for which the Ki in assay [2] was 8.5 nM.
